Marks after values point to notes of the source that are not given here.
Key:
[1] = tested on: Aspergillus brasiliensis; assay: Aspergillus brasiliensis Germ Count Reduction Test; format: cell-based; details: use-concentration (0.50% Composition 1; 0.0025% amine; 0.0050% butyl-BIT; 0.50% phenoxyethanol), initial count approx. 10^7 cfu/ml; for semi-quantitative assessment of the microbial growth of the streaks, Contact time [h] 1: contact time 1 h; for semi-quantitative assessment of the microbial growth of the streaks, Contact time [h] 3: contact time 3 h; for semi-quantitative assessment of the microbial growth of the streaks, Contact time [h] 6: contact time 6 h; for semi-quantitative assessment of the microbial growth of the streaks, Contact time [h] 24: contact time 24 h
Protocol: (§1) Dilutions of the samples are prepared with sterile tap water. 25 ml portions of the end solutions are inoculated with 0.1 ml microorganism suspension (initial microorganism count approx. 10^7 cfu/ml) and stirred.
For testing the reduction with Aspergillus brasiliensis the solutions are streaked out onto Sabouraud-dextrose 4% agar after 1, 3, 6 and 24 hours.
(§2) The cultures are incubated for 48 hours at 37° C., except for Aspergillus brasiliensis, which is incubated for 72 hours at 25-27° C. The evaluation is made on the basis of semi-quantitative assessment of the microbial growth of the streaks.

[2] = tested on: Staphylococcus aureus; assay: Staphylococcus aureus Germ Count Reduction Test; format: cell-based; details: use-concentration (0.50% Composition 1; 0.0025% amine; 0.0050% butyl-BIT; 0.50% phenoxyethanol), initial count approx. 10^7 cfu/ml; for semi-quantitative assessment of the microbial growth of the streaks, Contact time [min] 2: contact time 2 min; for semi-quantitative assessment of the microbial growth of the streaks, Contact time [min] 5: contact time 5 min; for semi-quantitative assessment of the microbial growth of the streaks, Contact time [min] 10: contact time 10 min; for semi-quantitative assessment of the microbial growth of the streaks, Contact time [min] 60: contact time 60 min
Protocol: as §1
For the reduction test with Staphylococcus aureus the solutions are streaked out onto tryptone soya agar after 2,5,10 and 60 minutes.
as §2

| Compound | semi-quantitative assessment of the microbial growth of the streaks, Contact time [h] 1 [1] | semi-quantitative assessment of the microbial growth of the streaks, Contact time [h] 3 [1] | semi-quantitative assessment of the microbial growth of the streaks, Contact time [h] 6 [1] | semi-quantitative assessment of the microbial growth of the streaks, Contact time [h] 24 [1] | semi-quantitative assessment of the microbial growth of the streaks, Contact time [min] 2 [2] | semi-quantitative assessment of the microbial growth of the streaks, Contact time [min] 5 [2] | semi-quantitative assessment of the microbial growth of the streaks, Contact time [min] 10 [2] | semi-quantitative assessment of the microbial growth of the streaks, Contact time [min] 60 [2] |
| --- | --- | --- | --- | --- | --- | --- | --- | --- |
| CCCCn1sc2ccccc2c1=O [2-butyl-1,2-benzisothiazolin-3-one] | ++++ (= massive growth approx. 10^5) | ++++ (= massive growth approx. 10^5) | ++++ (= massive growth approx. 10^5) | ++++ (= massive growth approx. 10^5) | ++++ (= massive growth approx. 10^5) | ++++ (= massive growth approx. 10^5) | ++++ (= massive growth approx. 10^5) | +++ (= heavy growth approx. 10^4) |
| CCCCCCCCCCCCN(CCCN)CCCN [N,N bis(3-aminopropyl)-dodecylamine] | C (= surface covered approx. 10^6) | C (= surface covered approx. 10^6) | ++++ (= massive growth approx. 10^5) | ++++ (= massive growth approx. 10^5) | +++ (= heavy growth approx. 10^4) | ++ (= moderate growth approx. 10^3) | ++ (= moderate growth approx. 10^3) | − (= no growth <100) |

Reference: patent US11399541B2, “Storage-stable microbicidal concentrates and use thereof as preservatives” (Vink Chemicals GmbH & Co. KG, priority 2017, dated 2022)
